According to publication PMC9979976 (Acta Crystallographica. Section F, Structural Biology …, 2023):

How the values were obtained:
[1] = target: T1, CATIII (chloramphenicol acetyltransferase III; CATIII+GG) (Escherichia coli, UniProt P00484); assay: X-ray crystal structure, […] A; format: binding
T1 construct: gene cat3; synthetic gene, full length without Met1; expressed in E. coli BL21(DE3); trimer

[2] = target: the molecule itself; assay: crystal structure; CATIII+GG at 24 mg/ml co-crystallised with 10 mM partially hydrolysed AcOCoA and saturating chloramphenicol; hanging drop, 46% PEG 400, 100 mM MgCl2, 0.1 M sodium citrate pH 5.5; space group P4(2)2(1)2, 1.68 A

**Q.** `CC(=O)OCCNC(=O)CCNC(=O)[C@H](O)C(C)(C)COP(=O)(O)OP(=O)(O)OC[C@H]1O[C@@H](n2cnc3c(N)ncnc32)[C@H](O)[C@@H]1OP(=O)(O)O` [AcOCoA, acetyl-oxa(dethia)CoA] was tested. Which “X-ray crystal structure, 1.68 A” value ([1]; co-crystallized with 10 mM AcOCoA (partly hydrolysed) and saturated chloramphenicol, pH 5.5, 298 K, active site, clearest in chain A, unreactive substrate analog) did it give?
**A.** In monomer A we can clearly model the position of the acetyl group

**Q.** For `CC(C)(COP(=O)(O)OP(=O)(O)OC[C@H]1O[C@@H](n2cnc3c(N)ncnc32)[C@H](O)[C@@H]1OP(=O)(O)O)[C@@H](O)C(=O)NCCC(=O)NCCO` [OCoA, oxa(dethia)CoA], which “X-ray crystal structure, 1.68 A” value ([1]; minor species (about 20% in monomer A) mixed with AcOCoA, with chloramphenicol, pH 5.5, active site) is on record?
**A.** Our structures here reveal a mixture of bound AcOCoA and OCoA

**Q.** With `O=C(N[C@H](CO)[C@H](O)c1ccc([N+](=O)[O-])cc1)C(Cl)Cl` [chloramphenicol] as the molecule, how does the “X-ray crystal structure, 1.68 A” value ([1]; co-crystallized at saturation with AcOCoA/OCoA, pH 5.5, 298 K, active site of each monomer) read?
**A.** Our CATIII structure has clear electron density for chloramphenicol in each monomer

B1: Chloramphenicol acetyltransferase III (enzyme)
chain: SGGNYTKFDVKNWVRREHFEFYRHRLPCGFSLTSKIDITTLKKSLDDSAYKFYPVMIYLIAQAVNQFDELRMAIKDDELIVWDSVDPQFTVFHQETETFSALSCPYSSDIDQFMVNYLSVMERYKSDTKLFPQGVTPENHLNISALPWVNFDSFNLNVANFTDYFAPIITMAKYQQEGDRLLLPLSVQVHHAVCDGFHVARFINRLQELCNSKLK
notes: cloning artifact left after TEV cleavage (Ser-Gly-Gly before Asn2); two Zn2+ modelled at contacts between trimers; also called CATIII; CATIII+GG; source: E. coli BL21(DE3), purified (HisTrap HP, TEV cleavage, second HisTrap HP); not shown: His6, N-terminal, cleaved
**Q.** B1 was tested. Which “stoichiometry N” value [2] did it give?
**A.** 3
